≈ marks a conversion by molar mass, not a printed value. Like-named read-outs stand apart in the source and are kept apart here.
How the values were obtained:
[1] = test system: Shig. flexneri; test: MIC by Steers' agar dilution method; format: cell-based; conditions: Shigella flexneri, MHA
[2] = test system: B. anthracis; test: microbe, parasite or virus in culture; format: cell-based; conditions: Bacillus anthracis
[3] = Blood levels in mice after subcutaneous administration; format: in vivo; conditions: mouse, read-out: Blood level; for concentration at 0.25 h: 15'; for concentration at 0.5 h: 30'; for concentration at 1 h: 60'; for concentration at 2 h: 120'
Method: Groups of mice were administered subcutaneously graded doses of 40, 20 and 10 mg./kg..

[4] = test system: E. coli Juhl; test: Standard experimental infection in mice; format: in vivo; conditions: Table 6
[5] = test system: K. pneumoniae A9977; test: Standard experimental infection in mice; format: in vivo; conditions: for ED50: Klebsiella pneumoniae, A9977, read-out: PD50
[6] = test system: Pr. vulgaris; test: MIC by Steers' agar dilution method; conditions: Proteus vulgaris
[7] = test system: Pr. mirabilis; test: MIC by Steers' agar dilution method; conditions: Proteus mirabilis
[8] = test system: Pr. morganii; test: MIC by Steers' agar dilution method; conditions: Morganella morganii
[9] = test system: Pr. rettgeri; test: MIC by Steers' agar dilution method; conditions: Providencia rettgeri
[10] = test system: Serr. marcescens; test: MIC by Steers' agar dilution method; conditions: Serratia marcescens
[11] = test system: S. typhimurium; test: MIC by Steers' agar dilution method; conditions: Salmonella enterica
[12] = test system: P. vulgaris A9436 (Pv-1); test: Standard experimental infection (single sc treatment); conditions: for No. of survivors/No. tested: Run C-808, single sc
[13] = strain not given (1st of 2), MHA, Example 10
[14] = strain not named (2nd of 2), MHA, Example 10

Question: What does the source list for `Cn1nnnc1SCC1=C(C(=O)O)N2C(=O)[C@@H](NC(=O)[C@H](O)c3ccccc3)[C@H]2SC1` [Cefamandole, cefamandole, reference compound]?
Answer: MIC ([1]; A9684, Table 1): 6.3 µg/mL (≈ 13.6 µM); MIC ([1]; Example 10): 6.3 µg/mL (≈ 13.6 µM); MIC ([1]; Sr-1 A9684, Table 3): 3.1 µg/mL (≈ 6.7 µM); MIC ([2]; Ba-3 A9504, HIA, Table 4): 0.2 µg/mL (≈ 0.432 µM); MIC ([2]; Ba-3 A9504, MHA, Table 4): 0.4 µg/mL (≈ 0.865 µM); MIC ([2]; Ba-3 A9504, NA, Table 4): 0.4 µg/mL (≈ 0.865 µM); MIC ([2]; MHA, Example 10): 0.4 µg/mL (≈ 0.865 µM); concentration at 0.25 h ([3]; sc 10 mg./kg.): 3800 ng/mL; concentration at 0.5 h ([3]; sc 10 mg./kg.): 1500 ng/mL; concentration at 1 h ([3]; sc 10 mg./kg.): 300 ng/mL; concentration at 2 h ([3]; sc 10 mg./kg.): 100 ng/mL; concentration at 0.25 h ([3]; sc 20 mg./kg.): 9500 ng/mL; concentration at 0.5 h ([3]; sc 20 mg./kg.): 4100 ng/mL; concentration at 1 h ([3]; sc 20 mg./kg.): 1000 ng/mL; concentration at 2 h ([3]; sc 20 mg./kg.): < 100 ng/mL; concentration at 0.25 h ([3]; sc 40 mg./kg.): 18000 ng/mL; concentration at 0.5 h ([3]; sc 40 mg./kg.): 11000 ng/mL; concentration at 1 h ([3]; sc 40 mg./kg.): 3900 ng/mL; concentration at 2 h ([3]; sc 40 mg./kg.): 300 ng/mL; No. of survivors/No. tested ([4]; 0.4 mg./kg.): 0/5; No. of survivors/No. tested ([4]; 1.6 mg./kg.): 2/5; No. of survivors/No. tested ([4]; 6.3 mg./kg.): 5/5; No. of survivors/No. tested ([4]; 25 mg./kg.): 5/5; ED50 ([4]; Escherichia coli, read-out: PD50): 1.8 mg/kg; No. of survivors/No. tested ([5]; 0.4 mg./kg., Table 6): 0/5; No. of survivors/No. tested ([5]; 1.6 mg./kg., Table 6): 0/5; No. of survivors/No. tested ([5]; 6.3 mg./kg., Table 6): 1/5; No. of survivors/No. tested ([5]; 25 mg./kg., Table 6): 5/5; ED50 ([5]; Run C-805, 3×10^3 LD50, single sc): 9.4 mg/kg; ED50 ([5]; Table 6): 6.25 mg/kg; No. of survivors/No. tested ([5]; Run C-805, 3×10^3 LD50, single sc, 0.4 mg./kg.): 0/5; No. of survivors/No. tested ([5]; Run C-805, 3×10^3 LD50, single sc, 1.6 mg./kg.): 0/5; No. of survivors/No. tested ([5]; Run C-805, 3×10^3 LD50, single sc, 6.3 mg./kg.): 1/5; No. of survivors/No. tested ([5]; Run C-805, 3×10^3 LD50, single sc, 25 mg./kg.): 5/5; MIC ([6]; A9436, MHA, Table 1): 0.4 µg/mL (≈ 0.865 µM); MIC ([6]; A9699, MHA, Table 1): 6.3 µg/mL (≈ 13.6 µM); MIC ([6]; ATCC9920, Pv-4 ATCC 9920, MHA, Table 3): 0.2 µg/mL (≈ 0.432 µM); MIC ([6]; Pv-1 A9436, HIA, Table 4): 0.4 µg/mL (≈ 0.865 µM); MIC ([6]; Pv-1 A9436, MHA, Table 3): 0.8 µg/mL (≈ 1.73 µM); MIC ([6]; Pv-1 A9436, MHA, Table 4): 0.4 µg/mL (≈ 0.865 µM); MIC ([6]; Pv-1 A9436, NA, Table 4): 0.2 µg/mL (≈ 0.432 µM); MIC ([6]; Pv-2 A9526, MHA, Table 3): 1.6 µg/mL (≈ 3.46 µM); MIC ([6]; Pv-3 A9699 (β-lactamase), HIA, Table 4): 100 µg/mL (≈ 216 µM); MIC ([6]; Pv-3 A9699 (β-lactamase), MHA, Table 4): 50 µg/mL (≈ 108 µM); MIC ([6]; Pv-3 A9699 (β-lactamase), NA, Table 4): 6.3 µg/mL (≈ 13.6 µM); MIC ([6]; Pv-3 A9699, MHA, Table 3): 50 µg/mL (≈ 108 µM); MIC ([6]; Pv-5 A9539, MHA, Table 3): > 100 µg/mL; MIC ([6]; Pv-6 A9716, MHA, Table 3): 0.8 µg/mL (≈ 1.73 µM); MIC ([6]; Pv-7 A21240, MHA, Table 3): > 100 µg/mL; MIC [6, 13]: 0.2 µg/mL (≈ 0.432 µM); MIC [6, 14]: 50 µg/mL (≈ 108 µM); MIC ([7]; A9554, MHA, Table 1): 0.4 µg/mL (≈ 0.865 µM); MIC ([7]; Pm-1 A9554, HIA, Table 4): 0.4 µg/mL (≈ 0.865 µM); MIC ([7]; Pm-1 A9554, NA, Table 4): 0.2 µg/mL (≈ 0.432 µM); MIC ([7]; Pm-2 A9900, HIA, Table 4): 0.4 µg/mL (≈ 0.865 µM); MIC ([7]; Pm-2 A9900, MHA, Table 3): 1.6 µg/mL (≈ 3.46 µM); MIC ([7]; Pm-2 A9900, MHA, Table 4): 0.8 µg/mL (≈ 1.73 µM); MIC ([7]; Pm-2 A9900, NA, Table 4): 0.4 µg/mL (≈ 0.865 µM); MIC ([7]; Pm-3 A20119, MHA, Table 3): 3.1 µg/mL (≈ 6.7 µM); MIC ([7]; Pm-4 A20454, MHA, Table 3): 1.6 µg/mL (≈ 3.46 µM); MIC ([7]; Pm-6 A21222, MHA, Table 3): 1.6 µg/mL (≈ 3.46 µM); MIC [7, 14]: 0.2 µg/mL (≈ 0.432 µM); MIC ([8]; A9553, MHA, Table 1): > 100 µg/mL; MIC ([8]; A20031, MHA, Table 1): 0.8 µg/mL (≈ 1.73 µM); MIC ([8]; Pg-1 A9553 (β-lactamase), HIA, Table 4): > 100 µg/mL; MIC ([8]; Pg-1 A9553 (β-lactamase), MHA, Table 4): > 100 µg/mL; MIC ([8]; Pg-1 A9553 (β-lactamase), NA, Table 4): > 100 µg/mL; MIC ([8]; Pg-1 A9553, MHA, Table 3): > 100 µg/mL; MIC ([8]; Pg-2 A20031, HIA, Table 4): 0.8 µg/mL (≈ 1.73 µM); MIC ([8]; Pg-2 A20031, MHA, Table 3): 1.6 µg/mL (≈ 3.46 µM); MIC ([8]; Pg-2 A20031, MHA, Table 4): 0.8 µg/mL (≈ 1.73 µM); MIC ([8]; Pg-2 A20031, NA, Table 4): 0.4 µg/mL (≈ 0.865 µM); MIC ([8]; Pg-3 A9636, MHA, Table 3): 1.6 µg/mL (≈ 3.46 µM); MIC ([8]; Pg-5 A15166, MHA, Table 3): 0.2 µg/mL (≈ 0.432 µM); MIC ([8]; Pg-6 A20455 (β-lactamase), HIA, Table 4): 3.1 µg/mL (≈ 6.7 µM); MIC ([8]; Pg-6 A20455 (β-lactamase), MHA, Table 4): 1.6 µg/mL (≈ 3.46 µM); MIC ([8]; Pg-6 A20455 (β-lactamase), NA, Table 4): 1.6 µg/mL (≈ 3.46 µM); MIC ([8]; Pg-6 A20455, MHA, Table 3): 1.6 µg/mL (≈ 3.46 µM); MIC ([8]; Pg-7 A20457, MHA, Table 3): 0.8 µg/mL (≈ 1.73 µM); MIC ([8]; Pg-8 A15153, MHA, Table 3): 0.8 µg/mL (≈ 1.73 µM); MIC ([8]; Pg-9 A15149, MHA, Table 3): 3.1 µg/mL (≈ 6.7 µM); MIC [8, 13]: > 100 µg/mL; MIC [8, 14]: 0.8 µg/mL (≈ 1.73 µM); MIC ([9]; A15167, MHA, Table 1): 0.2 µg/mL (≈ 0.432 µM); MIC ([9]; MHA, Example 10): 0.4 µg/mL (≈ 0.865 µM); MIC ([9]; Pr-1 A15167, HIA, Table 4): 0.1 µg/mL (≈ 0.216 µM); MIC ([9]; Pr-1 A15167, MHA, Table 3): 0.2 µg/mL (≈ 0.432 µM); MIC ([9]; Pr-1 A15167, MHA, Table 4): 0.2 µg/mL (≈ 0.432 µM); MIC ([9]; Pr-1 A15167, NA, Table 4): 0.2 µg/mL (≈ 0.432 µM); MIC ([9]; Pr-2 A9637, MHA, Table 3): 0.1 µg/mL (≈ 0.216 µM); MIC ([9]; Pr-4 A20645, MHA, Table 3): 0.1 µg/mL (≈ 0.216 µM); MIC ([9]; Pr-5 A20915, MHA, Table 3): 0.8 µg/mL (≈ 1.73 µM); MIC ([9]; Pr-6 A20920, MHA, Table 3): 0.2 µg/mL (≈ 0.432 µM); MIC ([10]; A20019, MHA, Table 1): 100 µg/mL (≈ 216 µM); MIC ([10]; MHA, Example 10): 100 µg/mL (≈ 216 µM); MIC ([10]; Sm-1 A20019 (β-lactamase), HIA, Table 4): 50 µg/mL (≈ 108 µM); MIC ([10]; Sm-1 A20019 (β-lactamase), MHA, Table 4): 100 µg/mL (≈ 216 µM); MIC ([10]; Sm-1 A20019 (β-lactamase), NA, Table 4): 50 µg/mL (≈ 108 µM); MIC ([10]; Sm-1 A20019, MHA, Table 3): 25 µg/mL (≈ 54.1 µM); MIC ([10]; Sm-2 A20335, MHA, Table 3): 12.5 µg/mL (≈ 27 µM); MIC ([10]; Sm-3 A20336, HIA, Table 4): 50 µg/mL (≈ 108 µM); MIC ([10]; Sm-3 A20336, MHA, Table 3): 12.5 µg/mL (≈ 27 µM); MIC ([10]; Sm-3 A20336, MHA, Table 4): 100 µg/mL (≈ 216 µM); MIC ([10]; Sm-3 A20336, NA, Table 4): 50 µg/mL (≈ 108 µM); MIC ([10]; Sm-4 A20442, MHA, Table 3): 12.5 µg/mL (≈ 27 µM); MIC ([10]; Sm-5 A20222, MHA, Table 3): 12.5 µg/mL (≈ 27 µM); MIC ([10]; Sm-6 A20460, MHA, Table 3): 12.5 µg/mL (≈ 27 µM); MIC ([10]; Sm-9 A20333, MHA, Table 3): 50 µg/mL (≈ 108 µM); MIC ([10]; Sm-10 A20334, MHA, Table 3): 50 µg/mL (≈ 108 µM); MIC ([10]; Sm-11 A20459, MHA, Table 3): 25 µg/mL (≈ 54.1 µM); MIC ([10]; Sm-12 A20461, MHA, Table 3): 50 µg/mL (≈ 108 µM); MIC [11]: 0.2 µg/mL (≈ 0.432 µM); ED50 ([12]; Proteus vulgaris, in Mus musculus, sc, read-out: PD50): 36 mg/kg; No. of survivors/No. tested ([12]; 0.8 mg./kg.): 0/5; No. of survivors/No. tested ([12]; 3.1 mg./kg.): 0/5; No. of survivors/No. tested ([12]; 12.5 mg./kg.): 1/5; No. of survivors/No. tested ([12]; 50 mg./kg.): 3/5

From US4112228A, “7-(D-α-Hydroxy-2-arylacetamido)-3-(2-carboxyalkyl-2,3-dihydro-s-tri azolo-[4,3-b]pyridazin-3-on-6-ylthiomethyl)-3-cephem-4-carboxylic acids and derivatives” (priority 1977, dated 1978)
